The text below walks through data of ChEMBL document CHEMBL5154810, “Development of Potent Immune Modulators Targeting Stimulator of Interferon Genes Receptor” (J Med Chem, 2022).

Series [1] in a line: AUClast in BALB/c mouse at 3 mg/kg, iv by LC-MS/MS analysis. It counts as ADME, organism-based. Also on record: time 0 - last, dose 3 mg/kg, route iv. As to conditions: in vivo.
The nature of series [2]: Volume of distribution at steady state in BALB/c mouse at 3 mg/kg, iv by LC-MS/MS analysis. It counts as ADME, organism-based. As to conditions: in vivo, read-out: Vdss.
Series [3] is described as follows: Terminal half life in BALB/c mouse at 3 mg/kg, iv by LC-MS/MS analysis. As to conditions: in vivo, read-out: beta t1/2 (converted). It is filed as ADME, organism-based.
Series [4] deals with Stimulator of interferon genes protein (Homo sapiens, UniProt Q86WV6). The conditions noted are these: THP1-Dual, filed as activator, dose 50.0 µM, time 24.0 hrs.
Chain of Stimulator of interferon genes protein (Q86WV6 whole entry): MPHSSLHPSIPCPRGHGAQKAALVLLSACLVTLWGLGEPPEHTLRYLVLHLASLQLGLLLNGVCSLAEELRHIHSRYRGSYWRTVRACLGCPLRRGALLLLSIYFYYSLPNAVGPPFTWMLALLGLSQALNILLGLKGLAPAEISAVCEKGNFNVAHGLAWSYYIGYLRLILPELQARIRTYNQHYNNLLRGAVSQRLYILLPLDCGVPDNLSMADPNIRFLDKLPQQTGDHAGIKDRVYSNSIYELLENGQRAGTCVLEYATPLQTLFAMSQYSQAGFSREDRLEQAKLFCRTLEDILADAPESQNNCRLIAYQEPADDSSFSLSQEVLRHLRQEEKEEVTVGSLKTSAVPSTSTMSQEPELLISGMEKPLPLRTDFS
Series [5] in a line: Clearance in BALB/c mouse at 3 mg/kg, iv by LC-MS/MS analysis. As to conditions: BALB/c, in vivo. It counts as ADME, organism-based.
The nature of series [6]: AUCinfinity in BALB/c mouse at 3 mg/kg, iv by LC-MS/MS analysis. It counts as ADME, organism-based. Also on record: time infinity, dose 3 mg/kg, route iv. The conditions noted are these: BALB/c, in vivo.
The nature of series [7]: Cytotoxicity against human THP1-Dual KO-STING cells assessed as residual cell viability by CellTiter96 Aqueous One Solution Cell Proliferation Assay. It counts as functional. Also on record: concentration or dose not given beside the values.
For series [8], the system named is THP1-Dual. Put plainly: Cytotoxicity against human wild type THP1-Dual cells assessed as residual cell viability by CellTiter96 Aqueous One Solution Cell Proliferation Assay. It counts as functional. The arrangement: concentration or dose not given beside the values.
A short description of series [9]: Activation of IRF-mediated immune response in human THP1-Dual KO-STING cells co-expressing ISRE reporter assessed as normalized luciferase gene expression by measuring relative luciferase units at 50 uM incubated for 24 hrs by QUANTI Luc based microplate reader method. It counts as functional.

As usually defined, the AUC(0-t) is exposure summed from dosing to a finite time, without extrapolation to infinity. As a reminder, the clearance is the volume of plasma or blood freed of the substance per unit of time. Usually AUC(0-inf) stands for total exposure, with the tail of the curve extrapolated. Turning to `CCn1nc(C)cc1C(=O)NCCCCn1c(NC(=O)c2cc(C)nn2CC)nc2cc(C(N)=O)ccc21`, the AUC(0-t) in [1] is 310 ng·h/mL. In addition, the Vd in series [2] was 1.8 L/kg. For the same compound, the half-life in series [3] was 35.4 min. Further, the RLU worked out at 104 in series [4] and 0.9 in [9]. For the same compound, the clearance in series [5] is 158 mL/min/kg. Also, the area under the curve AUC(0-inf) in series [6] was determined as 320 ng·h/mL. In addition, the Activity in series [7] stood at 88.2%; in series [8], 68.2%.

In the case of `Cn1cc(C(=O)Nc2nc3cc(C(N)=O)ccc3n2CCCCn2c(NC(=O)c3cn(C)nc3C(F)(F)F)nc3cc(C(N)=O)ccc32)c(C(F)(F)F)n1`, the RLU in series [4] came out at 7.7; in series [9] it was 0.8. Moreover, the Activity was 115% in series [7] and 96.7% in series [8].

Turning to `CCn1nc(C)cc1C(=O)Nc1nc2cc(C(N)=O)cc(OC)c2n1CCCCNC(=O)OC(C)(C)C`, the RLU in series [4] amounted to 2.7; in series [9], 0.5. For the same compound, the Activity was determined as 90% in [7] and 72.1% in [8].

In the case of `Cc1cc(C(=O)Nc2nc3cc(C(N)=O)ccc3n2CCCCNC(=O)OC(C)(C)C)n(C(C)C)n1`, the figures for the RLU in series [4] and in series [9] were 0.9 and 0.8, respectively. In addition, the Activity in [7] amounted to 100.1%; in series [8] it was 97.1%.

As for `CCn1nc(C(F)(F)F)cc1C(=O)Nc1nc2cc(C(N)=O)ccc2n1C[C@@H](O)c1ccccc1`, the RLU worked out at 0.7 in series [4] and 1 in series [9]. The Activity came out at 91% in [7] and 88.1% in [8].

With `CCn1nc(C)cc1C(=O)Nc1nc2cc(C(N)=O)ccc2n1CCCNC(=O)OC(C)(C)C`, the RLU in [4] turned out to be 20; in series [9] it was 0.9. Also, the Activity is listed as 88% in [7] and 90.2% in series [8].

As for `CC(C)(C)OC(=O)NCCCCn1c(NC(=O)c2cc3ccccc3o2)nc2cc(C(N)=O)ccc21`, the values for the RLU in [4] and in [9] were 0.8 and 0.7, respectively. Further, the Activity is on record as 98% in [7] and 92.7% in series [8].

Take `C=CCn1nc(C(=O)Nc2nc3cc(C(N)=O)ccc3n2CCCCn2c(NC(=O)c3cc(C)n(CC=C)n3)nc3cc(C(N)=O)ccc32)cc1C`: the RLU in [4] was 0.8; in [9] it was 0.9. The Activity is 108.3% in series [7] and 108.6% in series [8].

Take `CCn1nc(C)cc1C(=O)/N=c1\[nH]c2cc(C(N)=O)ccc2n1C[C@@H](O)c1ccccc1`: the RLU in series [4] worked out at 2; in series [9] it was 0.7. The values for the Activity in [7] and in [8] were 76.9% and 96%, respectively.

As for `Cn1cc(C(=O)Nc2nc3cc(C(N)=O)ccc3n2CCCCNC(=O)OC(C)(C)C)c(C(F)(F)F)n1`, the results for the RLU in series [4] and in [9] were 0.8 and 0.9, respectively. Moreover, the Activity in series [7] was found to be 90.6%; in series [8], 91.9%.

With `CCn1nc(C)cc1C(=O)Nc1nc2cc(C(N)=O)ccc2n1CCCCNC(=O)c1ccn[nH]1`, the RLU was determined as 0.9 in series [4] and 1.3 in series [9]. The Activity in series [7] is 109.2%; in series [8], 99.9%.

Regarding `Cc1cc(C(=O)Nc2nc3cc(C(N)=O)ccc3n2CCCCNC(=O)OC(C)(C)C)n(C)n1`, the RLU in series [4] was 0.9; in [9], 1.2. In addition, the results for the Activity in [7] and in [8] were 108.2% and 96.7%, respectively.
